US20040127567A1, “Novel methods for treating disorders in which docosahexaenoic acid (DHA) levels are affected” (Beth Israel Deaconess Medical Center, Inc., priority 1998, published 2004)
Where “and” joins values, the source holds several entries; their conditions need not be identical. Equal entries are not always repeated. Entries after “also recorded” stand apart in the source; their conditions may differ. Blank lines part the entries; values can stand above or below the compound they belong to.

How the values were obtained:
CFTR−/− mice = experiment: Pancreatic morphology / luminal diameter in CFTR−/− mice; format: in vivo, mouse; settings: for Effect on pancreas morphology (in words): 40 mg/day for one week (fish oil: dose equivalent to 40 mg DHA, 60 mg EPA, 15 mg LNA), vs Peptamen alone
Protocol: CF and WT mice were fed as outlined in the method section above. Dilation of the pancreatic duct lumen is a hallmark feature of cystic fibrosis. Therefore, the luminal area was measured from a minimum of 30 images from CF knockout mice treated with Peptamen™ alone or Peptamen™ plus 40 mg/day of DHA as well as wild type (WT) mice treated with Peptamen™ alone beginning at the time of weaning. Animals were sacrificed at 37 days of age and each pancreas fixed in glutaraldehyde. Analysis was performed using NIH Image software. The results are outlined in FIG. 1. […] No other treatment to date has shown tissue improvements at a morphological level.
The morphology of various organs were also studied. Sample preparation were carried out as follows: 1-2 cm of ileum adjacent to the cecum was fixed in formalin, embedded in paraffin, cut in cross-section, and stained with hematoxylin/eosin. For pancreatic analyses, 2-3 mm pieces of pancreas were fixed for 1.5 h in 2% glutaraldehyde in 0.2M cacodylate buffer. Tissue samples were then washed in 0.2M cacodylate buffer and subsequently postfixed for 1 h in 1% osmium tetroxide in 0.1 M cacodylate buffer. Tissue was embedded in epon and thick sections stained with 1% toluidine blue.
Morphometry: For measurement of ileal villus height or pancreatic luminal diameter, multiple images were randomly taken at 200× using a Nikon Microphot-SA microscope equipped with a Diagnostic Instruments, Inc., Spot Digitizing System. Images were examined in a blinded fashion by two independent observers. Quantitation was performed using NIH Imaging Software. The differences between the means in the groups tested were evaluated using the Student's t-test.
Tissue samples from these mice were prepared for light microscopy and sections analyzed at 200×. Pancreatic acinar cell morphology of CFTR−/− control mice is characterized by massive luminal dilatation and zymogen granule accumulation at the apical pole of the acinar cells (data not shown), two hallmark features of cystic fibrosis pathology (W. V. L. Go. (1993) Pancreas: Biology, Pathobiology, and Disease, Chapter 54:1041-1081). […] Luminal diameter is approximately 9fold greater in CFTR−/− mice. […] There also appeared to be a decrease in ductal plugs DGA-fed CFTR−/− mice; however, this observation was not subjected to morphometric analysis.
Additional experiments were performed to observe the effect of administering the DHA precursor docosapentaenoic acid (DPA,22:5n-3) on DHA levels. Wild-type and CFTR−/− mice were fed with 40 mg of DPA per day for 7 days and fatty acids in pancreas and lung analyzed by GC/MS. One to 2 mm pieces of pancreas from both wild-type and CFTR−/−were fixed for 1.5 h in […] in 0.2M cacodylate buffer and processed for morphometric analysis.

[1] = Plasma levels of DHA in mice fed DHA; format: in vivo, mouse; settings: for Plasma level of DHA: values for two different mice
Protocol: Mouse pancreatic acinar and lung cell suspensions were prepared from wild type (n=3) and CFTR−/− mice (n=3) by enzymatic and mechanical dissociation. In addition, brain, kidney, heart, spleen, and blood were sonicated in 0.3M sucrose buffer. Membrane lipids were extracted from cell and organ preparations with 20 volumes of chloroform-methanol 2:1 (v/v), transmethylated with 0.5 mL of 0.1 N methanolic-NaOH/BF3 reagent, and the resulting fatty acid methyl esters analyzed by gas chromatography/mass spectrometry (GC/MS). In a different set of experiments, lipids were fractionated by aminopropyl column chromatography into triglycerides, cholesterol esters, and phosphoglycerides and the fatty acid composition of each lipid class determined by a combination of enzymatic hydrolysis, transmethylation, and GC/MS.
Cystic fibrosis (UNC strain) and wild type mice (12-20 grams body weight) were fed with a complete liquid enteral formulation (Peptamen™, Nestle Clinical Nutrition, Inc.) supplemented with different quantities of the DHA-containing formulation Neuromins (Nature's Way Products Inc., Springville, Utah). DHA content in the Neuromins formulation was 100 mg per 500 mg of formulation. Mice were fed once a day at about 11 a.m., seven days a week with 20 ml of Peptamen™ supplemented with the various amounts of either Neuramins, free DHA (Sigma Chemical Co., MO) or DHA-ethyl ester (Nu-Check-Prep, Inc. MN) ranging from 0.5 mg/day of DHA to 40 mg/day of DHA.
Plasma levels of DHA in CF and wild-type mice were measured as described above in the method section.
Since the pancreas and the lung are the two primary organs affected in cystic fibrosis, AA and DHA levels in cell preparations of these organs and in wild-type and CFTR−/− mice were quantitated by GC/MS analysis. Lipids were extracted from cell suspensions, tissue homogenates, and blood plasma with 6 volumes of chloroform-methanol (2:1, v/v). The resulting emulsions were centrifuged at 600 g for 3 min and the lower phase containing the lipids was collected. This procedure was repeated twice and the lower phases from the two extractions combined. Aliquots of 30 μL of heptadecanoic acid (17:0) (1 mg/ml) were added to the extracts and used as an internal standard. Samples were evaporated to dryness under nitrogen. The resulting lipids were subsequently transmethylated using the 0.1N methanolic NaOH/boron tri fluoride reagent (Alvarez et al., (1995) Mol. Reprod. Dev. 42:334-346). The resulting fatty acid methyl esters were analyzed by Hewlett Packard GC/MS mounted with a WCOT capillary column (Supelcowax-10, 30 m×0.53 mm I.D., 1 μm film thickness) with initial and final temperatures in the column oven of 150° C. and 250° C., respectively, programmed to increase at a rate of 10° C./min. Fatty acid methyl ester peaks were identified by comparison of retention times of standard fatty acid mixtures and by mass spectrometry, and quantified using methylheptadecanoate as the internal standard. In some studies, the different lipid classes including cholesterol esters, triglycerides, free fatty acids, and glycerolipids, were also fractionated from cell and tissue extracts by aminopropyl column chromatography and the corresponding fatty acid methyl esters prepared and analyzed (Alvarez et al., (1992) J. Chromatogr. B. 577:142-145). In order to determine the fatty acids bound to the sn-2 position of lipids, the phospholipid fraction obtained by aminopropyl column chromatography was incubated at 37° C. for 15 min in 0.5 ml of PBS containing 250 units of phospholipase A2, and the resulting fatty acids methylated and analyzed by GC/MS (Alvarez et al., (1995) Mol. Reprod. Dev. 42:334-346).

Plasma level of DHA ([1]; CF mice, 0.5 mg/day DHA): 41 µg/mL and 40 µg/mL | Plasma level of DHA ([1]; CF mice, 2 mg/day DHA): 99 µg/mL and 77 µg/mL | Plasma level of DHA ([1]; CF mice, 10 mg/day DHA): 106 µg/mL and 133 µg/mL | Plasma level of DHA ([1]; CF mice, 40 mg/day DHA): 230 µg/mL and 263 µg/mL | DHA plasma level reached ([1]; CFTR−/− mice, 35 to 40 mg/day DHA in liquid enteral formulation): above 170 μg/ml | Plasma level of DHA ([1]; WT mice, 40 mg/day DHA): 214 µg/mL and 194 µg/mL | DHA plasma levels in CFTR−/− versus wild-type mice ([1]; increasing oral doses of DHA, p=0.5, n=3 (FIG. 6)): not significantly different
Compound: CC/C=C\C/C=C\C/C=C\C/C=C\C/C=C\C/C=C\CCC(=O)O [DHA, docosahexaenoic acid]
Decrease in pancreatic luminal diameter (CFTR−/− mice; oral 40 mg/day for 7 days, p<0.0001, n=6): 63%

Compound: CC/C=C\C/C=C\C/C=C\C/C=C\C/C=C\CCCCCC(=O)O [DPA, docosapentaenoic acid]
Improvement in pancreas morphology (pancreatic ductal diameter, presence of plugs) (CFTR−/− mice; 40 mg per day for 7 days): 20%

Compound: CC/C=C\C/C=C\C/C=C\CCCCCCCC(=O)O [LNA, α-linolenic acid, reference compound]
Effect on pancreas morphology (in words) (CFTR−/− mice): significant increase in acinar lumen dilatation and plug formation; also recorded: significant increase in ductal dilatation; also recorded: increased acinar lumen dilation and plug formation | Effect on pancreas morphology (in words) (CFTR−/− mice; listed as 18:3n-3): worsening of the pathological changes in the pancreas
